Consider 5 molecules from patent publication US20080195024A1, “Treating Disorders Associated with Inflammation” (priority 2005, published 2008).

The subject of one data set is human neutrophils. In words: Flow cytometric analysis of neutrophil cytotoxicity (PI cell death, forward scatter). The data set is classed as cell-based. Particulars: for increase in forward scatter: pancreatic proteases alone; for cytotoxicity to neutrophils: pure proteases at the tested concentrations. The procedure:
Cytotoxicity measurement—flow cytometric analysis of neutrophil cytotoxicity: For measurements of cell death and forward scatter (a measure of cell “size”) by flow cytometry, 100 μl of sample were mixed with 100 μl of cells (10^6 cells/ml final) and after selected periods of incubation, a life/death indicator (200 μl of 2 μM propidium iodide, PI) was added. Within seconds of PI addition, the sample was tested in a flow cytometer (Beckton-Dickson FACScan; Franklin Lakes N.J.).
Flow cytometric analysis of neutrophils was carried out by plotting forward scatter (FSC) on the ordinate and FL-2 (PI fluorescence) on the abscissa. […] Two regions on the scatter plot were gated. Region 1 (R1) was for live cells, and was constructed to monitor an increase in cell size that results from bleb formation and also to observe the small uptake of PI that occur may prior to total membrane failure. […] Ten thousand cells were evaluated per sample. Cell death was reported as the percentage of total cells located in R2, i.e., Death=100%*(# in R2)/(# in R1+# in R2).

Data set [1] has as its system digestive enzymes in luminal contents. In words: Protease activity of wall homogenates digested with filtered luminal fluid with or without protease inhibitors. As to conditions: filtered luminal fluid plus inhibitor incubated with wall homogenates 3 hours at 37° C.; final 1 mM PMSF, 1.25 mg/ml (2.31 mM) ANGD. The data set is classed as biochemical, rat. The source says: (§1) To determine if enzyme inhibition could prevent the generation of cytotoxic mediators from luminal contents, luminal fluids were pre-filtered through three glass fiber filters in series, a procedure that reduces cytotoxic activity, allowing the experiments to be focused solely on new cytotoxic mediator formation. […] The precipitate was separated following the digestion period and the supernatant collected. All samples were then aliquotted and frozen for later measurements of protease activity and neutrophil cytotoxicity.

Data set [2] is described as follows: Solubility of ANGD in luminal fluid. Particulars: with or without glucose; white precipitate formed. The data set is classed as physicochemical.
Description: as §1

A further data set relates to casein. As to the kind of experiment: Protease activity measurement (Enzcheck casein kit) of proteases, homogenates and luminal fluids. The data set is classed as biochemical. Particulars: mixed with equal volume of PBS; fluorescence after 90 minutes; mean±SD, N=6. As for the experimental part: In vitro studies of intestinal wall homogenate digested with proteases—enzymatic digestion of wall homogenates: Wall homogenates were rapidly thawed at 37° C. and mixed with equal volumes of PBS, TPCK-treated trypsin, TLCK-treated chymotrypsin, or elastase. Controls of the proteases alone also were created by mixing them with equal volumes of PBS. Since lower grades of trypsin are often contaminated with the activity of chymotrypsin and vice versa, trypsin pretreated with TPCK (a specific chymotrypsin inhibitor) and chymotrypsin pretreated with TLCK (a trypsin inhibitor) were used to reduce any effects of cross contamination. Before mixing with wall homogenate, the enzymes were reconstituted in PBS at the following concentrations: 1 mg/ml for TPCK-treated trypsin, 1 mg/ml for TLCK-treated chymotrypsin, and 0.5 mg/ml for elastase.
The groups were treated as follows: the luminal fluids from 5 animals were incubated separately (37° C., 3 hours) and aliquots of each sample were collected. One aliquot was filtered through 4 glass fiber pre-filters in series. The unfiltered and filtered aliquots were mixed with equal volumes of PBS (to generate the Lumen and Filtered Lumen groups, respectively) or with wall homogenate from the same animal (to generate the Wall+Lumen and Wall+Filtered Lumen groups, respectively). The Wall group was prepared by mixing wall homogenates with equal volumes of PBS. All samples were incubated at 37° C. for 3 additional hours, aliquotted, and frozen (−70° C.) for later evaluation of neutrophil cytotoxicity and protease activity.

The mark [3] stands for this setting: wall homogenates digested with filtered luminal fluid with inhibitor, exposure 20, 30 or 40 minutes.

For the molecule `CS(=O)(=O)O.CS(=O)(=O)O.N=C(N)Nc1ccc(C(=O)Oc2ccc3cc(C(=N)N)ccc3c2)cc1` [ANGD, 6-amidino-2-naphthyl p-guanidinobenzoate dimethanesulfonate], in the data set on human neutrophils (setting [3]), the neutrophil cell death result is recorded as “significantly decrease the cell death compared to controls” and the neutrophil forward scatter entry is on record as “prevented the large increase in forward scatter”. For the same molecule, the “protease activity inhibited in the digested homogenates” value in data set [1] is “less effective”. For the same molecule, the “solubility in the luminal fluid” value in data set [2] was “not completely soluble”.
Turning to `O=S(=O)(F)Cc1ccccc1` [PMSF, phenylmethylsulfonyl fluoride], the “cytotoxicity compared to samples without PMSF” value in the data set with human neutrophils (PMSF added after digestion of wall homogenate by chymotrypsin, not statistically significant) is reported as “slightly increased cytotoxicity”. The neutrophil cell death entry is given as “no cell death” with human neutrophils (PMSF added prior to digestion of wall homogenate by chymotrypsin) and “Neither PMSF nor ANGD alone entirely prevented cell death” in the data set with human neutrophils (setting [3]). In addition, in data set [1], the “protease activity inhibited in the digested homogenates” value is listed as “approximately half”.
With chymotrypsin, in the data set on human neutrophils, the “increase in forward scatter” value is reported as “significantly elevated at 90 minutes” and the cytotoxicity to neutrophils result is “not cytotoxic”. This molecule also displayed a protease activity in the data set on casein of 2371±230 RFU.
For the molecule “elastase: pancreatic elastase from Worthington Biochemicals, 0.5 mg/ml in PBS”, in the data set with human neutrophils, the “increase in forward scatter” value is reported as “greatest increase” and the cytotoxicity to neutrophils result was “not cytotoxic”. The molecule further showed a protease activity in the data set with casein of 2389±300 RFU.
For trypsin, in the data set with human neutrophils, the “increase in forward scatter” value is “no significant effect” and the cytotoxicity to neutrophils result is on record as “not cytotoxic”. In the data set with casein, this molecule came in with a protease activity of 300±33 RFU.
